From ChEMBL document CHEMBL6078706, “Deciphering the Comprehensive Structure-Activity Relationship of Sunshinamide for Breast Cancer Therapy through Dual Modulation of Apoptotic and Ferroptotic Pathways via TrxR1 and Gpx4 Inhibition” (J Med Chem, 2024)
The source made the active and inactive calls. The calls are words filed in the database; no cut-off is given here.

Legend:
HEK293 = assay: Antiproliferative activity against human HEK293 cells assessed as cell viability upto 50 nM incubated for 48 hrs by MTT assay; format: toxicity, cell-based; conditions: hek293, 48 h, 0.05 µM
MDA-MB-468 [1] = assay: Antiproliferative activity against human MDA-MB-468 cells assessed as cell viability at 10 nM incubated for 48 hrs by MTT assay; format: functional, cell-based
A549 = assay: Antiproliferative activity against human A549 cells assessed as cell viability at 10 nM incubated for 48 hrs by MTT assay; format: functional, cell-based
MDA-MB-468 [2] = assay: Induction of ferroptosis in human MDA-MB-468 cells assessed as increase in cell viability at 25 nM incubated for 48 hrs; format: functional, cell-based

Compound | Activity (HEK293) | Activity (MDA-MB-468 [1]) | Activity (A549) | Activity (MDA-MB-468 [2])
CCCCCCC[C@H]1CC(=O)N[C@H](Cc2ccccc2)C(=O)N[C@H]2CSSC[C@H](NC2=O)C(=O)O1 | Non-toxic | – | – | –
O=C1C[C@@H](c2ccccc2)OC(=O)[C@@H]2CSSC[C@H](NC(=O)[C@@H](Cc3ccccc3)N1)C(=O)N2 | Non-toxic | Active | Active | –
CC[C@@H]1CC(=O)N[C@H](Cc2ccccc2)C(=O)N[C@H]2CSSC[C@H](NC2=O)C(=O)O1 | Non-toxic | Active | Active | –
CC(C)(C)OC(=O)N[C@@H]1CSSC[C@@H](C(=O)OC(C)(C)C)NC1=O | Non-toxic | – | – | –
CCCCCCC[C@@H]1CC(=O)N[C@H](CC(C)C)C(=O)N[C@H]2CSSC[C@H](NC2=O)C(=O)O1 | Non-toxic | – | – | –
CCCCCCC[C@@H]1CC(=O)NCC(=O)N[C@H]2CSSC[C@H](NC2=O)C(=O)O1 | Non-toxic | – | – | –
CCCCCCC[C@@H]1CC(=O)N[C@H](CO)C(=O)N[C@H]2CSSC[C@H](NC2=O)C(=O)O1 | Non-toxic | – | – | –
CCOC(=O)c1ccc(NC2CCCCC2)c(N)c1 | – | – | – | Active
